# EPA's ToxRefDB 2
# Experiments:
# rat [1] = conditions: Subchronic oral toxicity in rodents, sprague dawley, Feed, dose end: 90 day, group: cholinesterase, cholinesterase / cholinesterase / cholinesterase / brain cholinesterase (che)
# rat [2] = conditions: Combined chronic toxicity/carcinogenicity, sprague dawley, Oral, Feed, dose end: 28 month
# dog = conditions: Chronic toxicity, beagle, Oral, Feed, dose end: 52 week
# rat [3] = conditions: Prenatal developmental toxicity study, sprague dawley, Oral, Gavage/Intubation, dose end: 15 GD
# rat [4] = conditions: Subchronic oral toxicity in rodents, fischer, Feed, dose end: 13 week, group: systemic
# rat [5] = conditions: Prenatal developmental toxicity study, sprague dawley, Oral, Gavage/Intubation, dose end: 15 GD; remark: listed apart in the source
# mouse [6] = conditions: Subchronic oral toxicity in rodents, b6c3f1, Feed, dose end: 13 week, group: systemic, systemic / pathology microscopic / liver / degeneration + systemic / pathology microscopic / liver / hyalinization
# mouse [7] = conditions: Multigenerational reproductive toxicity study, cd1, Oral, Water, dose end: 2 generation
# rabbit = conditions: Prenatal developmental toxicity study; new zealand white; Oral; Gavage/Intubation; dose end: 19 GD; group: maternal; reproductive / reproductive performance / pregnancy / pregnancy + reproductive / reproductive performance / premature delivery / premature …
# mouse [8] = conditions: Combined chronic toxicity/carcinogenicity, b6c3f1, Oral, Feed, dose end: 2 year, group: systemic
# rat [9] = conditions: Prenatal developmental toxicity study, sprague dawley, Oral, Gavage/Intubation, dose end: 20 GD
# mouse [10] = conditions: Multigenerational reproductive toxicity study, cd1, Oral, Water, dose end: 2 generation; remark: listed apart in the source
# [11] = group: cholinesterase, cholinesterase / cholinesterase / cholinesterase / brain cholinesterase (che) + cholinesterase / cholinesterase / cholinesterase / …
# [12] = group: systemic, systemic / pathology microscopic / adrenal gland / pheochromocytoma benign + systemic / in life observation / clinical signs / aggressive …
# [13] = group: cholinesterase, cholinesterase / cholinesterase / cholinesterase / brain cholinesterase (che)
# [14] = group: systemic, systemic / hematology / erythrocyte (rbc) count differential / erythrocyte (rbc) + systemic / hematology / hematocrit (hct) / hematocrit (…
# [15] = group: developmental, developmental / developmental malformation / bone / ossification sites
# [16] = group: maternal, systemic / in life observation / body weight / body weight + systemic / in life observation / body weight / body weight gain + systemic / in…
# [17] = systemic / clinical chemistry / creatinine / creatinine + systemic / clinical chemistry / urea nitrogen / urea nitrogen + systemic / in life…
# [18] = systemic / clinical chemistry / urea nitrogen / urea nitrogen
# [19] = group: developmental, developmental / developmental malformation / bone / absent + developmental / developmental malformation / bone / delayed ossification + …
# [20] = group: maternal, systemic / in life observation / body weight / body weight + systemic / in life observation / body weight / body weight gain + reproductive…
# [21] = group: offspring, developmental / developmental malformation / eye / absent + developmental / developmental malformation / mouth / jaw / cleft lip + …
# [22] = group: offspring, systemic / in life observation / body weight / offspring (pup) weight
# [23] = group: parental, systemic / in life observation / water consumption / water consumption + systemic / organ weight / liver / absolute + systemic / in life …
# [24] = group: parental, systemic / pathology gross / sperm measure / sperm count
# [25] = group: reproductive, reproductive / offspring survival early / live fetuses / live fetuses
# [26] = group: reproductive, reproductive / reproductive performance / fertility / fertility + reproductive / offspring survival early / live fetuses / live fetuses
# [27] = systemic / pathology microscopic / liver / degeneration
# [28] = systemic / pathology microscopic / liver / degeneration + systemic / pathology microscopic / lung / hyperplasia + systemic / pathology …
# [29] = group: developmental, developmental / developmental malformation / bone / absent + developmental / developmental malformation / bone / double-tipped + …
# [30] = group: maternal, reproductive / reproductive performance / gestational length / gestational length + systemic / pathology microscopic / kidney / dilatation…
# [31] = group: offspring, developmental / developmental malformation / bone / absent + developmental / developmental malformation / bone / fused + developmental / …
# [32] = group: parental, systemic / in life observation / mortality / mortality
# [33] = group: reproductive, reproductive / reproductive performance / fertility / fertility + reproductive / offspring survival early / litter size / litter size
smiles,measurement,setting,value
COP(=O)(NC(C)=O)SC (centres undefined) [Acephate],LEL,rat [1],0.12 mg/kg/day
same,LOAEL,rat [1],0.12 mg/kg/day
same,NEL,rat [1],< 0.12 mg/kg/day
same,NOAEL,rat [1],< 0.12 mg/kg/day
same,LEL,rat [2]; [11],0.25 mg/kg/day
same,LOAEL,rat [2]; [11],35 mg/kg/day
same,NEL,rat [2]; [11],< 0.25 mg/kg/day
same,NOAEL,rat [2]; [11],2.5 mg/kg/day
same,LEL,rat [2]; [12],0.25 mg/kg/day
same,LOAEL,rat [2]; [12],> 35 mg/kg/day
same,NEL,rat [2]; [12],< 0.25 mg/kg/day
same,NOAEL,rat [2]; [12],≥ 35 mg/kg/day
same,LEL,dog; [13],0.27 mg/kg/day
same,LOAEL,dog; [13],0.27 mg/kg/day
same,NEL,dog; [13],< 0.27 mg/kg/day
same,NOAEL,dog; [13],< 0.27 mg/kg/day
same,LEL,dog; [14],20.2 mg/kg/day
same,LOAEL,dog; [14],20.2 mg/kg/day
same,NEL,dog; [14],3.11 mg/kg/day
same,NOAEL,dog; [14],3.11 mg/kg/day
same,LEL,rat [3]; [15],75 mg/kg/day
same,LOAEL,rat [3]; [15],75 mg/kg/day
same,NEL,rat [3]; [15],20 mg/kg/day
same,NOAEL,rat [3]; [15],20 mg/kg/day
same,LEL,rat [3]; [16],20 mg/kg/day
same,LOAEL,rat [3]; [16],20 mg/kg/day
same,NEL,rat [3]; [16],5 mg/kg/day
same,NOAEL,rat [3]; [16],5 mg/kg/day
OCCO [Ethylene glycol],LOAEL,rat [4]; [17],1250 mg/kg/day
same,NOAEL,rat [4]; [17],625 mg/kg/day
same,LEL,rat [4]; [18],160 mg/kg/day
same,NEL,rat [4]; [18],< 160 mg/kg/day
same,LEL,rat [5]; [19],2500 mg/kg/day
same,LOAEL,rat [5]; [19],> 2500 mg/kg/day
same,NEL,rat [5]; [19],< 2500 mg/kg/day
same,NOAEL,rat [5]; [19],≥ 2500 mg/kg/day
same,LEL,rat [5]; [20],2500 mg/kg/day
same,LOAEL,rat [5]; [20],> 2500 mg/kg/day
same,NEL,rat [5]; [20],< 2500 mg/kg/day
same,NOAEL,rat [5]; [20],≥ 2500 mg/kg/day
same,LEL,mouse [6],3750 mg/kg/day
same,LOAEL,mouse [6],> 7500 mg/kg/day
same,NEL,mouse [6],1880 mg/kg/day
same,NOAEL,mouse [6],≥ 7500 mg/kg/day
same,LOAEL,mouse [7]; [21],> 2000 mg/kg/day
same,NOAEL,mouse [7]; [21],≥ 2000 mg/kg/day
same,LEL,mouse [7]; [22],667 mg/kg/day
same,NEL,mouse [7]; [22],< 667 mg/kg/day
same,LOAEL,mouse [7]; [23],> 2000 mg/kg/day
same,NOAEL,mouse [7]; [23],≥ 2000 mg/kg/day
same,LEL,mouse [7]; [24],667 mg/kg/day
same,NEL,mouse [7]; [24],< 667 mg/kg/day
same,LEL,mouse [7]; [25],1330 mg/kg/day
same,NEL,mouse [7]; [25],667 mg/kg/day
same,LOAEL,mouse [7]; [26],> 2000 mg/kg/day
same,NOAEL,mouse [7]; [26],≥ 2000 mg/kg/day
same,LEL,rabbit,2000 mg/kg/day
same,LOAEL,rabbit,> 2000 mg/kg/day
same,NEL,rabbit,1000 mg/kg/day
same,NOAEL,rabbit,≥ 2000 mg/kg/day
same,LEL,mouse [8]; [27],1500 mg/kg/day
same,NEL,mouse [8]; [27],< 1500 mg/kg/day
same,LOAEL,mouse [8]; [28],> 12000 mg/kg/day
same,NOAEL,mouse [8]; [28],≥ 12000 mg/kg/day
same,LOAEL,rat [9]; [29],> 2250 mg/kg/day
same,NEL,rat [9]; [29],250 mg/kg/day
same,NOAEL,rat [9]; [29],≥ 2250 mg/kg/day
same,LEL,"rat [9]; group: developmental, developmental / developmental malformation / kidney / size + systemic / in life observation / body weight / fetal weight",1250 mg/kg/day
same,LEL,rat [9]; [30],1250 mg/kg/day
same,LOAEL,rat [9]; [30],> 2250 mg/kg/day
same,NEL,rat [9]; [30],250 mg/kg/day
same,NOAEL,rat [9]; [30],≥ 2250 mg/kg/day
same,LEL,mouse [10]; [31],1330 mg/kg/day
same,LOAEL,mouse [10]; [31],> 1330 mg/kg/day
same,NEL,mouse [10]; [31],667 mg/kg/day
same,NOAEL,mouse [10]; [31],≥ 1330 mg/kg/day
same,LEL,mouse [10]; [32],667 mg/kg/day
same,LOAEL,mouse [10]; [32],> 1330 mg/kg/day
same,NEL,mouse [10]; [32],333 mg/kg/day
same,NOAEL,mouse [10]; [32],≥ 1330 mg/kg/day
same,NEL,"mouse [10]; group: reproductive, reproductive / reproductive performance / fertility / fertility",667 mg/kg/day
same,LEL,mouse [10]; [33],1330 mg/kg/day
same,LOAEL,mouse [10]; [33],> 1330 mg/kg/day
same,NOAEL,mouse [10]; [33],≥ 1330 mg/kg/day
